We go through 1 compound from patent publication US6492342B1, “Hygromycin A prodrugs” (Pfizer Inc., priority 1999, dated 2002).

This test deals with panel of bacterial strains. Kind of test: Microtiter tray MIC assay against a panel of bacterial strains (NCCLS). The settings on record: microtiter trays, compounds dissolved in DMSO. It is filed as cell-based. The source says: The assay, described below, employs conventional methodology and interpretation criteria and is designed to provide direction for chemical modifications that may lead to compounds with antibacterial activity against susceptible and drug-resistant organisms including, but not limited to, beta-lactam, macrolide and vancomycin resistance. In the assay, a panel of bacterial strains is assembled to include a variety of target pathogenic species, including representatives of antibiotic resistant bacteria. Use of this panel enables the chemical structure/activity relationship to be determined with respect to potency and spectrum of activity. The assay is performed in microtiter trays and interpreted according to Performance Standards for Antimicrobial Disk SusceDtibility Tests—Sixth Edition; Approved Standard, published by The National Committee for Clinical Laboratory Standards (NCCLS) guidelines; the minimum inhibitory concentration (MIC) is used to compare strains. Compounds are initially dissolved in dimethylsulfoxide (DMSO) as stock solutions.

Each structure is given as a SMILES string.

On to `CC(=Cc1ccc(OC2OC(/C(C)=N/OCc3cccc(Cl)c3)C(O)C2O)c(OC(=O)C(C)(C)C)c1)C(=O)NC1C(O)C(O)C2OCOC2C1O` (stereo not shown) [Example 1], for which the “antibacterial activity in the microtiter assay (MIC)” value is reported as “exhibits antibacterial activity”.
